We go through two molecules from paper PMC6843404, “Conferring the Metabolic Self-Sufficiency of the CAM Plasmid of Pseudomonas putida ATCC 17453: The Key Role of Putidaredoxin Reductase” (Microorganisms, 2019).

One experiment deals with T1, PdR (Pseudomonas putida, UniProt P16640).
T1 construct: gene camA
T1 sequence (P16640 1-422): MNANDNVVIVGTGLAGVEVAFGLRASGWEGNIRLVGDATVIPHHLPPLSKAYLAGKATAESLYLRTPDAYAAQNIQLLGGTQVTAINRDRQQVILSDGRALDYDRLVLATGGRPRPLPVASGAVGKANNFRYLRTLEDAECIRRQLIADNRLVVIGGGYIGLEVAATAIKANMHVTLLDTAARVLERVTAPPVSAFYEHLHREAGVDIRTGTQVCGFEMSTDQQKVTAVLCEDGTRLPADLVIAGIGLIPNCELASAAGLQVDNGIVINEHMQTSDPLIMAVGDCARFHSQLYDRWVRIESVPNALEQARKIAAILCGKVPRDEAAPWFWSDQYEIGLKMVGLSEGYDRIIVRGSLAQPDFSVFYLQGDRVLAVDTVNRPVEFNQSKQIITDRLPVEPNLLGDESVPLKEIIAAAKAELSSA
In words: spectrophotometric NADH oxidation at […] nm. The experiment is classed as biochemical. To be noted: anaerobic.

In another experiment the target is T2, Fred (Pseudomonas putida, UniProt M4YFG7).
T2 construct: native, highly purified, chromosome-coded, 36 kDa homodimer
T2 sequence (M4YFG7 2-170): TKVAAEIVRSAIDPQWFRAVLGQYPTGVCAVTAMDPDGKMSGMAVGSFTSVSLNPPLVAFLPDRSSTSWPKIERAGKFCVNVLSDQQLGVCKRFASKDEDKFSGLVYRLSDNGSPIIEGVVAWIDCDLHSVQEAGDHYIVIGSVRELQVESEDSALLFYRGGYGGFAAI
In words: spectrophotometric NADH oxidation at […] nm. The experiment is classed as biochemical. To be noted: anaerobic.

As for `NC(=O)C1=CN([C@@H]2O[C@H](COP(=O)(O)OP(=O)(O)OC[C@H]3O[C@@H](n4cnc5c(N)ncnc54)[C@H](O)[C@@H]3O)[C@@H](O)[C@H]2O)C=CC1` [NADH], the “spectrophotometric NADH oxidation at 340 nm” value on PdR (FMN as co-substrate) and on Fred (FMN as co-substrate) was “measuring the initial rate of enzyme-catalysed reduction of FMN by NADH” each time.

Regarding `Cc1cc2nc3c(=O)[nH]c(=O)nc-3n(C[C@H](O)[C@H](O)[C@H](O)COP(=O)(O)O)c2cc1C` [FMN], the “spectrophotometric NADH oxidation at 340 nm” value at PdR (NADH as co-substrate) and at Fred (NADH as co-substrate) was “measuring the initial rate of enzyme-catalysed reduction of FMN by NADH” each time.
